This is an account of results in patent US20220152150A1, “MESOPOROUS SILICA PARTICLES COMPOSITIONS FOR VIRAL DELIVERY” (Novartis AG, priority 2019, published 2022).

This assay has as its system EGFRvIII CARTs. As to the kind of experiment: Cytokine production of EGFRvIII CARTs stimulated by ligand-presenting MSRs (multiplex cytokine analysis). It is filed as cell-based. The following applies: lipid-coated MSRs, 1% PE-biotin in the lipid coating; FIG. 8. On the procedure:
MSRs with surface-immobilized ligands were prepared as described in Cheung, A. S., et al., Scaffolds that mimic antigen-presenting cells enable ex vivo expansion of primary T cells. Nature Biotechnology, 36(2), 160-169.
Briefly, liposomes primarily composed of POPC with 1 mol % PE-biotin were formed using a thin film rehydration method and extrusion through a 100 nm polycarbonate membrane. Hydroxyl functionalized MSRs were incubated with the liposomes to allow the formation of a supported lipid bilayer on the MSR surface (FIG. 6). To functionalize the MSRs with CD3 and CD28 agonistic antibodies, MSRs were washed several times with PBS, incubated with streptavidin, and then tethered with biotinylated CD3 and CD28 antibodies. For MSR-immobilization of EGFRvIII CAR-binding peptides, a biotinylated EGFRvIII CAR-binding peptide was used (FIG. 7). For BCMA CART stimulation, recombinant BCMAFc protein was biotinylated using biotin-NHS and similarly coupled to the MSR surface.
After incubation with the desired ligands, MSRs were washed several times with PBS and resuspended in culture medium at various concentrations and incubated with T cells. T cell proliferation was read out using CFSE labeling of the T cells and assessing dye dilution by flow cytometry. Cytokine production was assessed using a multiplex cytokine analysis method (Mesoscale […] V-Plex).
EGFRvIII CARTs produced interferon gamma and IL-2 in response to EGFRvIII CAR-binding peptide bound to the surface of the MSRs, while free EGFRvIII CAR-binding peptide in solution, a non-stimulating peptide (OVA) presented on the MSRs, or undecorated MSRs gave no response from the CARTs (FIG. 8). In another experiment, the proliferation of EGFRvIII CARTs were monitored in response to various stimuli using cell counting (FIG. 9).

As to “EGFRvIII CAR-binding peptide bound to the surface of the MSRs: biotinylated EGFRvIII CAR-binding peptide (LEEKKGNYVVTDH, SEQ ID NO: 674) immobilized via streptavidin on lipid-coated MSRs”, the IL-2 production entry is recorded as “produced” and the interferon gamma production entry is “produced”.
On to “free EGFRvIII CAR-binding peptide: EGFRvIII CAR-binding peptide (LEEKKGNYVVTDH (SEQ ID NO: 674)) free in solution”, for which the IL-2 production result is given as “no response” and the interferon gamma production entry is reported as “no response”.
